Assay results from US4699928A, “Fluoroallylamine derivatives” (Merrell Dow Pharmaceuticals Inc., priority 1986, dated 1987).

Assays:
depression = details: in vivo; cited from earlier work
[1] = test system: heart rate response to p-tyramine; experiment: Cheese effect: potentiation of response to intraduodenal p-tyramine, anaesthetized rats; assay type: in vivo, male Sprague-Dawley rats; details: p-tyramine i.d.
Protocol: (§1) The following test procedures can be employed to assess the potential of a compound of Formula I for producing the "cheese effect": […]
(§2) Eighteen hours later the animals are anaesthetized with pentobarbitone (60 mg/kg i.p.), in some instances pithed, and in all cases set up for recording heart rate and blood pressure by standard techniques.

MAO = experiment: Inhibition of MAO in vitro, partially purified rat brain mitochondria, 14C p-tyramine substrate; assay type: biochemical; details: tested as hydrochloride salt
Excerpt: Inhibition of MAO--In vitro testing
(A) The ability of a compound of Formula I to inhibit MAO can be determined in vitro by the method of A. Christmas et al., Br. J. Pharmacol., 45, 490 (1972) in partially purified mitochondria from rat brain using ^14 C p-tyramine as the substrate. The MAO inhibitory activity of a compound is expressed as the "IC50 " value, which is the molar concentration required to produce 50% inhibition of the enzyme.

[2] = test system: heart rate response to p-tyramine; experiment: Cheese effect: potentiation of response to intravenous p-tyramine, pithed rats; assay type: in vivo, male Sprague-Dawley rats; details: p-tyramine i.v.
Protocol: as §1, §2

MAO-A = details: cited from earlier work
[3] = low dosages where preferential inhibition of MAO-B occurs; cited from earlier work
MAO-B versus MAO-A = experiment: Selectivity of inhibition of MAO-B versus MAO-A in vitro (14C phenethylamine / 14C 5-hydroxytryptamine); assay type: biochemical; details: rat, brain mitochondria
Protocol: Mitochondria are prepared from rat brain by homogenation in phosphate buffer (0.1 M, pH 7.2) followed by differential centrifugation. The mitochondria are suspended in the same buffer, the test compound is added at the desired concentration, and the system is incubated. At different time intervals, aliquots are taken and MAO activity is measured using ^14 C p-tyramine (a mixed substrate) as the substrate (See A. Christmas et al., supra).
(C) The selectivity of a compound of Formula I with respect to inhibition of MAO-A and MAO-B can be determined by repeating the procedure of Part B and measuring the MAO activity using ^14 C 5-hydroxytryptamine (a preferred substrate for MAO-A) and ^14 C phenethylamine (a preferred substrate for MAO-B) as the substrate.

MAO-A and MAO-B = details: cited from earlier work
MAO-B = details: cited from earlier work

## C#CCN(C)CCCOc1ccc(Cl)cc1Cl [clorgyline, reference compound]
depression
  clinical antidepressant effect: clinically effective antidepressant agents
[1]; 0.1 mg/kg
  Potentiation of heart rate response to p-tyramine: 5.6 fold
MAO
  IC50: 10 nM
[2]; 0.1 mg/kg
  Potentiation of heart rate response to p-tyramine: 5.2 fold
MAO-A
  preferential inhibition of MAO-A: MAO-A is preferentially inhibited

## NC/C(=C/F)COc1ccccc1 [(Z)-2-phenoxymethyl-3-fluoroallylamine]
MAO
  IC50: 1000 nM

## C#CCN(C)[C@H](C)Cc1ccccc1 [L-deprenyl, reference compound]
depression
  clinical antidepressant effect: clinically effective antidepressant agents
[1]; 0.1 mg/kg, in words
  Potentiation of heart rate response to p-tyramine: no effect
[1]; 1.0 mg/kg
  Potentiation of heart rate response to p-tyramine: 2.1 fold
[3]
  cheese effect: not observed
[2]; 0.1 mg/kg
  Potentiation of heart rate response to p-tyramine: 1.3 fold
[2]; 1.0 mg/kg
  Potentiation of heart rate response to p-tyramine: 2.2 fold

## CNC/C(=C/F)COc1ccc(Cl)cc1Cl [N-methyl (Z)-2-(2',4'-dichlorophenoxy)methyl-3-fluoroallylamine]
MAO-B versus MAO-A
  Ratio B:A (inhibitory activity against MAO-B versus MAO-A): 100

## C#CCN(C)Cc1ccccc1 [pargyline]
depression
  clinical antidepressant effect: clinically effective antidepressant agents
MAO
  IC50: 2000 nM
MAO-A and MAO-B; lower versus higher dosages
  dose-dependence of selectivity: selective inhibitors at lower dosages, but are not selective inhibitors at higher dosages
MAO-B
  preferential inhibition of MAO-B: MAO-B is preferentially inhibited

## NNCCc1ccccc1 [phenelzine]
MAO-A and MAO-B
  preference in action upon MAO: not preferential

## Cc1cc(C(=O)NNCc2ccccc2)no1 [isocarboxazid]
MAO-A and MAO-B
  preference in action upon MAO: not preferential

## NC/C(=C/F)CSc1ccccc1 [(Z)-2-thiophenoxymethyl-3-fluoroallylamine]
MAO-B versus MAO-A
  Ratio B:A (inhibitory activity against MAO-B versus MAO-A): 1,000
MAO
  IC50: 1000 nM

## N[C@@H]1C[C@H]1c1ccccc1 (relative stereo) [tranylcypromine]
MAO-A and MAO-B
  preference in action upon MAO: not preferential

## NC/C(=C/F)CSc1ccc(F)cc1 [(Z)-2-(4'-fluorothiophenoxy) methyl-3-fluoroallylamine]
MAO-B versus MAO-A
  Ratio B:A (inhibitory activity against MAO-B versus MAO-A): 100

## NC/C(=C\F)CSc1ccccc1 [(E)-2-thiophenoxymethyl-3-fluoroallylamine]
MAO-B versus MAO-A
  Ratio B:A (inhibitory activity against MAO-B versus MAO-A): 100
